Experiments:
MCF7 [1] = test: cells; details: Homo sapiens, MCF7, 72 h
Description: Cytotoxicity against human MCF7 cells after 72 hrs by MTT assay

HCT-116 = test: cells; details: Homo sapiens, HCT-116, 72 h
A549 [2] = test: cells; details: Homo sapiens, A549, 72 h
Description: Cytotoxicity against human A549 cells after 72 hrs by MTT assay

Histone deacetylase 1 = Histone deacetylase 1 (Homo sapiens, UniProt Q13547); test: Inhibition of HDAC1 (unknown origin)
[3] = Terminal half life in Sprague-Dawley rat at 25 mg/kg, po; type: ADME, organism-based; set-up: dose 25 mg/kg, route oral; details: in vivo, read-out: beta t1/2 (converted)
[4] = AUClast in Sprague-Dawley rat at 25 mg/kg, po; details: plasma
[5] = Tmax in Sprague-Dawley rat at 25 mg/kg, po; type: ADME, organism-based; set-up: dose 25 mg/kg, route oral; details: in vivo
A549 [6] = test: Ratio of MGCD0103 IC50 to compound IC50 for human A549 cells; type: functional
MCF7 [7] = test: Ratio of MGCD0103 IC50 to compound IC50 for human MCF7 cells; type: functional
[8] = AUC infinity in Sprague-Dawley rat at 25 mg/kg, po; type: ADME, organism-based; set-up: time infinity, dose 25 mg/kg, route oral; details: plasma
[9] = Oral bioavailability in Sprague-Dawley rat at 25 mg/kg; type: ADME, organism-based; details: in vivo
[10] = Terminal half life in Sprague-Dawley rat at 5 mg/kg, iv; type: ADME, organism-based; set-up: dose 5 mg/kg, route intravenous; details: in vivo, read-out: beta t1/2 (converted)

Sequence of Histone deacetylase 1 (Q13547 whole entry): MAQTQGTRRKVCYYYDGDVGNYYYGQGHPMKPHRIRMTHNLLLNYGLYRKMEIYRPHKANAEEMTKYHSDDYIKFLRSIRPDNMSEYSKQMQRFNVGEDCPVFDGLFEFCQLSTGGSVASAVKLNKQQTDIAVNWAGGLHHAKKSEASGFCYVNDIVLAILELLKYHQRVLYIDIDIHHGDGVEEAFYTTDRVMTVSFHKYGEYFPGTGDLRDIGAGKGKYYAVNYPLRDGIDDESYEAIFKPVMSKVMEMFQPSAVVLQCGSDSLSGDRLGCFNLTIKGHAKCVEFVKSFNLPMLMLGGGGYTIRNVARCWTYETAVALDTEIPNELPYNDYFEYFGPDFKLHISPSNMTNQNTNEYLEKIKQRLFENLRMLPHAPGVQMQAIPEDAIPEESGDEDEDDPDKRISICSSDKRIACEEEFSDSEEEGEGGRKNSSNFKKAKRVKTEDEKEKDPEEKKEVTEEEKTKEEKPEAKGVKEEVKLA

Structure (SMILES) | IC50 (MCF7 [1]) [nM] | IC50 (HCT-116) [nM] | IC50 (A549 [2]) [nM] | IC50 (Histone deacetylase 1) [nM] | half-life [3] [h] | AUC(0-t) [4] [ng·h/mL] | Tmax [5] [min] | Ratio IC50 (A549 [6]) | Ratio IC50 (MCF7 [7]) | AUC(0-inf) [8] [ng·h/mL] | bioavailability [9] [%] | half-life [10] [h]
Cc1nc2ncccn2c1-c1ccnc(NCc2ccc(C(=O)Nc3ccccc3N)cc2)n1 | 4110 | 189 | 857 | 127 |  |  |  |  |  |  |  | 
Cc1nc2ccc(Br)cn2c1-c1ccnc(NCc2ccc(C(=O)Nc3ccccc3N)cc2)n1 | 2360 | 301 | 501 | 125 |  |  |  |  |  |  |  | 
Cc1nc2ccccn2c1-c1ccnc(NCCc2ccc(C(=O)Nc3ccccc3N)cc2)n1 | 4120 | 304 | 851 | 131 |  |  |  |  |  |  |  | 
Cc1nc2ccccn2c1-c1ccnc(NCc2ccc(C(=O)Nc3ccc(F)cc3N)cc2)n1 | 2400 | 244 | 649 | 135 |  |  |  |  |  |  |  | 
Cc1nc2ccccn2c1-c1ccnc(NCc2ccc(C(=O)Nc3ccccc3N)cc2)n1 | 2090 | 203 | 439 | 108 |  |  |  |  |  |  |  | 
Cc1nc2cnccn2c1-c1ccnc(NCc2ccc(C(=O)Nc3ccccc3N)cc2)n1 | 3740 | 264 | 694 | 97 |  |  |  |  |  |  |  | 
Nc1ccccc1NC(=O)c1ccc(CNc2nccc(-c3cnc4ncccn34)n2)cc1 | 856 | 183 | 427 | 35 |  |  |  |  |  |  |  | 
Nc1ccccc1NC(=O)c1ccc(CCNc2nccc(-c3cnc4ncccn34)n2)cc1 | 1720 | 256 | 724 | 154 |  |  |  |  |  |  |  | 
Nc1ccccc1NC(=O)c1ccc(CNc2nccc(-c3cnc4ccccn34)n2)cc1 | 661 | 82 | 110 | 53 | 4.58 | 71900 | 4.98 | 11.6 | 7 | 72300 | 81 | 1.73
Cc1nc2ccccn2c1-c1ccnc(NCc2ccc(C(=O)Nc3cc(F)ccc3N)cc2)n1 | 1000 | 270 | 176 | 97 |  |  |  |  |  |  |  | 
Nc1ccccc1NC(=O)c1ccc(CNc2nccc(-c3cnc4cnccn34)n2)cc1 | 2180 | 214 | 509 | 110 |  |  |  |  |  |  |  | 
